{"source": "PubChem BioAssay AID2060884", "about": "(Molecular Pharmacology Branch, DTP, NCI, 2025)", "system": "NCI-H929 complex spheroids, viability % test/control", "assay": "Anticancer human tumor NCI-H929 cell line growth inhibition [RAS];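 on all read-outs here: compound exposure lasted seven days before viability was read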;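 on viability, T/C: 100% = DMSO vehicle control viability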", "details": "for IC50: curve of first compound; for viability, T/C: stronger effect = lower value", "how_it_was_run": "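Agents were tested in combination matrices in half-log decrements from a top concentration at or near clinical Cmax (10 microM if undetermined). Targets were multi-cell spheroids of tumour lines plus HUVEC and MSC stromal cells.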", "key": {"[1]": {"details": "second compound 0.000949 µM, first compound 0.0316 µM"}, "[2]": {"details": "second compound 0.000949 µM, first compound 0.1 µM"}, "[3]": {"details": "second compound 0.000949 µM, first compound 0.316 µM"}, "[4]": {"details": "second compound 0.000949 µM, first compound 1 µM"}, "[5]": {"details": "second compound 0.003 µM, first compound 0.0316 µM"}, "[6]": {"details": "second compound 0.003 µM, first compound 0.1 µM"}, "[7]": {"details": "second compound 0.003 µM, first compound 0.316 µM"}, "[8]": {"details": "second compound 0.003 µM, first compound 1 µM"}, "[9]": {"details": "second compound 0.00949 µM, first compound 0.0316 µM"}, "[10]": {"details": "second compound 0.00949 µM, first compound 0.1 µM"}, "[11]": {"details": "second compound 0.00949 µM, first compound 0.316 µM"}, "[12]": {"details": "second compound 0.00949 µM, first compound 1 µM"}, "[13]": {"details": "second compound 0.03 µM, first compound 0.0316 µM"}, "[14]": {"details": "second compound 0.03 µM, first compound 0.1 µM"}, "[15]": {"details": "second compound 0.03 µM, first compound 0.316 µM"}, "[16]": {"details": "second compound 0.03 µM, first compound 1 µM"}, "[17]": {"details": "second compound 0.0949 µM, first compound 0.0316 µM"}, "[18]": {"details": "second compound 0.0949 µM, first compound 0.1 µM"}, "[19]": {"details": "second compound 0.0949 µM, first compound 0.316 µM"}, "[20]": {"details": "second compound 0.0949 µM, first compound 1 µM"}, "[21]": {"details": "second compound 0.3 µM, first compound 0.0316 µM"}, "[22]": {"details": "second compound 0.3 µM, first compound 0.1 µM"}, "[23]": {"details": "second compound 0.3 µM, first compound 0.316 µM"}, "[24]": {"details": "second compound 0.3 µM, first compound 1 µM"}}, "data": [{"smiles": "CCN1CCN(Cc2ccc(Nc3ncc(F)c(-c4cc(F)c5nc(C)n(C(C)C)c5c4)n3)nc2)CC1", "note": "+ CCn1c(-c2cc(N3CCN(C)CC3)cnc2C(C)OC)c2c3cc(ccc31)-c1csc(n1)CC(NC(=O)C1CC1C)C(=O)N1CCCC(N1)C(=O)OCC(C)(C)C2", "values": [{"measurement": "IC50", "setting": "second compound 0.000949 µM", "value": 0.789, "unit": "µM"}, {"measurement": "IC50", "setting": "second compound 0.003 µM", "value": 0.725, "unit": "µM"}, {"measurement": "IC50", "setting": "second compound 0.00949 µM", "value": 0.642, "unit": "µM"}, {"measurement": "IC50", "setting": "second compound 0.03 µM", "value": 0.134, "unit": "µM"}, {"measurement": "IC50", "setting": "second compound 0.0949 µM", "value": "< 0.00316", "unit": "µM"}, {"measurement": "IC50", "setting": "second compound 0.3 µM", "value": "< 0.00316", "unit": "µM"}, {"measurement": "viability, T/C", "setting": "second compound 0.000949 µM, first compound 0.00316 µM", "value": 104, "unit": "%"}, {"measurement": "viability, T/C", "setting": "second compound 0.000949 µM, first compound 0.01 µM", "value": 98.4, "unit": "%"}, {"measurement": "viability, T/C", "setting": "[1]", "value": 110, "unit": "%"}, {"measurement": "viability, T/C", "setting": "[2]", "value": 107, "unit": "%"}, {"measurement": "viability, T/C", "setting": "[3]", "value": 114, "unit": "%"}, {"measurement": "viability, T/C", "setting": "[4]", "value": 35.1, "unit": "%"}, {"measurement": "viability, T/C", "setting": "second compound 0.003 µM, first compound 0.00316 µM", "value": 98.3, "unit": "%"}, {"measurement": "viability, T/C", "setting": "second compound 0.003 µM, first compound 0.01 µM", "value": 105, "unit": "%"}, {"measurement": "viability, T/C", "setting": "[5]", "value": 108, "unit": "%"}, {"measurement": "viability, T/C", "setting": "[6]", "value": 113, "unit": "%"}, {"measurement": "viability, T/C", "setting": "[7]", "value": 114, "unit": "%"}, {"measurement": "viability, T/C", "setting": "[8]", "value": 27.8, "unit": "%"}, {"measurement": "viability, T/C", "setting": "second compound 0.00949 µM, first compound 0.00316 µM", "value": 109, "unit": "%"}, {"measurement": "viability, T/C", "setting": "second compound 0.00949 µM, first compound 0.01 µM", "value": 116, "unit": "%"}, {"measurement": "viability, T/C", "setting": "[9]", "value": 120, "unit": "%"}, {"measurement": "viability, T/C", "setting": "[10]", "value": 125, "unit": "%"}, {"measurement": "viability, T/C", "setting": "[11]", "value": 122, "unit": "%"}, {"measurement": "viability, T/C", "setting": "[12]", "value": 7.19, "unit": "%"}, {"measurement": "viability, T/C", "setting": "second compound 0.03 µM, first compound 0.00316 µM", "value": 81.7, "unit": "%"}, {"measurement": "viability, T/C", "setting": "second compound 0.03 µM, first compound 0.01 µM", "value": 80.5, "unit": "%"}, {"measurement": "viability, T/C", "setting": "[13]", "value": 76.6, "unit": "%"}, {"measurement": "viability, T/C", "setting": "[14]", "value": 55.4, "unit": "%"}, {"measurement": "viability, T/C", "setting": "[15]", "value": 29.2, "unit": "%"}, {"measurement": "viability, T/C", "setting": "[16]", "value": 1.2, "unit": "%"}, {"measurement": "viability, T/C", "setting": "second compound 0.0949 µM, first compound 0.00316 µM", "value": 9.23, "unit": "%"}, {"measurement": "viability, T/C", "setting": "second compound 0.0949 µM, first compound 0.01 µM", "value": 8.26, "unit": "%"}, {"measurement": "viability, T/C", "setting": "[17]", "value": 6.56, "unit": "%"}, {"measurement": "viability, T/C", "setting": "[18]", "value": 4.66, "unit": "%"}, {"measurement": "viability, T/C", "setting": "[19]", "value": 2.4, "unit": "%"}, {"measurement": "viability, T/C", "setting": "[20]", "value": 0.89, "unit": "%"}, {"measurement": "viability, T/C", "setting": "second compound 0.3 µM, first compound 0.00316 µM", "value": 4.35, "unit": "%"}, {"measurement": "viability, T/C", "setting": "second compound 0.3 µM, first compound 0.01 µM", "value": 4.24, "unit": "%"}, {"measurement": "viability, T/C", "setting": "[21]", "value": 2.73, "unit": "%"}, {"measurement": "viability, T/C", "setting": "[22]", "value": 2.03, "unit": "%"}, {"measurement": "viability, T/C", "setting": "[23]", "value": 1.42, "unit": "%"}, {"measurement": "viability, T/C", "setting": "[24]", "value": 0.89, "unit": "%"}]}, {"smiles": "C[C@@H](NC(=O)c1ncnc(N)c1Cl)c1ncc(C(=O)Nc2cc(C(F)(F)F)c(Cl)cn2)s1", "note": "+ CCn1c(-c2cc(N3CCN(C)CC3)cnc2C(C)OC)c2c3cc(ccc31)-c1csc(n1)CC(NC(=O)C1CC1C)C(=O)N1CCCC(N1)C(=O)OCC(C)(C)C2", "values": [{"measurement": "IC50", "setting": "second compound 0.000949 µM", "value": "> 10", "unit": "µM"}, {"measurement": "IC50", "setting": "second compound 0.003 µM", "value": "> 10", "unit": "µM"}, {"measurement": "IC50", "setting": "second compound 0.00949 µM", "value": "> 10", "unit": "µM"}, {"measurement": "IC50", "setting": "second compound 0.03 µM", "value": "> 10", "unit": "µM"}, {"measurement": "IC50", "setting": "second compound 0.0949 µM", "value": "< 0.0316", "unit": "µM"}, {"measurement": "IC50", "setting": "second compound 0.3 µM", "value": "< 0.0316", "unit": "µM"}, {"measurement": "viability, T/C", "setting": "[1]", "value": 104, "unit": "%"}, {"measurement": "viability, T/C", "setting": "[2]", "value": 100, "unit": "%"}, {"measurement": "viability, T/C", "setting": "[3]", "value": 102, "unit": "%"}, {"measurement": "viability, T/C", "setting": "[4]", "value": 98.9, "unit": "%"}, {"measurement": "viability, T/C", "setting": "second compound 0.000949 µM, first compound 3.16 µM", "value": 104, "unit": "%"}, {"measurement": "viability, T/C", "setting": "second compound 0.000949 µM, first compound 10 µM", "value": 112, "unit": "%"}, {"measurement": "viability, T/C", "setting": "[5]", "value": 95.8, "unit": "%"}, {"measurement": "viability, T/C", "setting": "[6]", "value": 99.7, "unit": "%"}, {"measurement": "viability, T/C", "setting": "[7]", "value": 103, "unit": "%"}, {"measurement": "viability, T/C", "setting": "[8]", "value": 101, "unit": "%"}, {"measurement": "viability, T/C", "setting": "second compound 0.003 µM, first compound 3.16 µM", "value": 105, "unit": "%"}, {"measurement": "viability, T/C", "setting": "second compound 0.003 µM, first compound 10 µM", "value": 114, "unit": "%"}, {"measurement": "viability, T/C", "setting": "[9]", "value": 91.8, "unit": "%"}, {"measurement": "viability, T/C", "setting": "[10]", "value": 104, "unit": "%"}, {"measurement": "viability, T/C", "setting": "[11]", "value": 107, "unit": "%"}, {"measurement": "viability, T/C", "setting": "[12]", "value": 111, "unit": "%"}, {"measurement": "viability, T/C", "setting": "second compound 0.00949 µM, first compound 3.16 µM", "value": 111, "unit": "%"}, {"measurement": "viability, T/C", "setting": "second compound 0.00949 µM, first compound 10 µM", "value": 115, "unit": "%"}, {"measurement": "viability, T/C", "setting": "[13]", "value": 114, "unit": "%"}, {"measurement": "viability, T/C", "setting": "[14]", "value": 121, "unit": "%"}, {"measurement": "viability, T/C", "setting": "[15]", "value": 120, "unit": "%"}, {"measurement": "viability, T/C", "setting": "[16]", "value": 119, "unit": "%"}, {"measurement": "viability, T/C", "setting": "second compound 0.03 µM, first compound 3.16 µM", "value": 115, "unit": "%"}, {"measurement": "viability, T/C", "setting": "second compound 0.03 µM, first compound 10 µM", "value": 89.2, "unit": "%"}, {"measurement": "viability, T/C", "setting": "[17]", "value": 19.9, "unit": "%"}, {"measurement": "viability, T/C", "setting": "[18]", "value": 28.3, "unit": "%"}, {"measurement": "viability, T/C", "setting": "[19]", "value": 35.9, "unit": "%"}, {"measurement": "viability, T/C", "setting": "[20]", "value": 43.4, "unit": "%"}, {"measurement": "viability, T/C", "setting": "second compound 0.0949 µM, first compound 3.16 µM", "value": 45.6, "unit": "%"}, {"measurement": "viability, T/C", "setting": "second compound 0.0949 µM, first compound 10 µM", "value": 18.5, "unit": "%"}, {"measurement": "viability, T/C", "setting": "[21]", "value": 6.79, "unit": "%"}, {"measurement": "viability, T/C", "setting": "[22]", "value": 9.47, "unit": "%"}, {"measurement": "viability, T/C", "setting": "[23]", "value": 9.99, "unit": "%"}, {"measurement": "viability, T/C", "setting": "[24]", "value": 13.3, "unit": "%"}, {"measurement": "viability, T/C", "setting": "second compound 0.3 µM, first compound 3.16 µM", "value": 14.1, "unit": "%"}, {"measurement": "viability, T/C", "setting": "second compound 0.3 µM, first compound 10 µM", "value": 8.3, "unit": "%"}]}]}
